Ki data for 24 compounds are collected here from patent publication US9840501B2, “Morpholin-pyridine derivatives” (Hoffmann-La Roche Inc., priority 2014, dated 2017).

The structures appear in SMILES notation.

The target in assay [1] is mouse TAAR1 (Mus musculus (Mouse), UniProt Q923Y8). As to the kind of experiment: Radioligand binding assay on mouse TAAR1. The note with it: mouse TAAR1, membranes of stably transfected HEK-293 cells; first value of the pair; read-out: Ki (μM) mouse/rat: mouse. The procedure: (§1) For the construction of expression plasmids the coding sequences of human, rat and mouse TAAR 1 were amplified from genomic DNA essentially as described by Lindemann et al.. The Expand High Fidelity PCR System (Roche Diagnostics) was used with 1.5 mM Mg^2+ and purified PCR products were cloned into pCR2.1-TOPO cloning vector (Invitrogen) following the instructions of the manufacturer. PCR products were subcloned into the pIRESneo2 vector (BD Clontech, Palo Alto, Calif.), and expression vectors were sequence verified before introduction in cell lines.
Sequence of mouse TAAR1 (Q923Y8 whole entry): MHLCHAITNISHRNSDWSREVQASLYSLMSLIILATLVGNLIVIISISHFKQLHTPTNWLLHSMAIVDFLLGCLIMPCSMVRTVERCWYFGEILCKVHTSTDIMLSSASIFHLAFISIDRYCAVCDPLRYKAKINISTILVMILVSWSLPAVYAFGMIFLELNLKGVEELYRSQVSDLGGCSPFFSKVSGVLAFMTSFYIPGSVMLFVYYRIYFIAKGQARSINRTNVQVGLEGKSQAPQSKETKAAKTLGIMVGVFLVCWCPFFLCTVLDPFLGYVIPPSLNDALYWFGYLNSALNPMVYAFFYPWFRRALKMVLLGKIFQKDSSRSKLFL
(§2) For the generation of stably transfected cell lines HEK293 cells were transfected with the pIRESneo2 expression plasmids containing the TAAR coding sequences (described above) with Lipofectamine 2000 (Invitrogen) according to the instructions of the manufacturer, and 24 hrs post transfection the culture medium was supplemented with 1 mg/ml G418 (Sigma, Buchs, Switzerland). After a culture period of about 10 d clones were isolated, expanded and tested for responsiveness to trace amines (all compounds purchased from Sigma) with the cAMP Biotrak Enzyme immunoassay (EIA) System (Amersham) following the non-acetylation EIA procedure provided by the manufacturer.
Radioligand Binding Assay on Mouse TAAR1
(§3) Membrane Preparation and Radioligand Binding.
(§4) Cells were released from culture flasks using trypsin/EDTA, harvested, washed twice with ice-cold PBS (without Ca^2+ and Mg^2+), pelleted at 1,000 rpm for 5 min at 4° C., frozen and stored at −80° C. Frozen pellets were suspended in 20 ml HEPES-NaOH (20 mM, pH 7.4) containing 10 mM EDTA and homogenized with a Polytron (PT 6000, Kinematica) at 14′000 rpm for 20 s. The homogenate was centrifuged at 48,000×g for 30 min at 4° C. Subsequently, the supernatant was removed and discarded, and the pellet resuspended in 20 ml HEPES-NaOH (20 mM, pH 7.4) containing 0.1 mM EDTA using the Polytron (20 s at 14′000 rpm). This procedure was repeated and the final pellet resuspended in HEPES-NaOH containing 0.1 mM EDTA and homogenized using the Polytron. Typically, aliquots of 2 ml membrane portions were stored at −80° C. With each new membrane batch the dissociation constant (Kd) was determined via a saturation curve. […] Nonspecific binding was defined as the amount of ^3[H]—(S)-4-[(ethyl-phenyl-amino)-methyl]-4,5-dihydro-oxazol-2-ylamine bound in the presence of 10 μM unlabeled ligand. All compounds were tested at a broad range of concentrations (10 pM to 10 μM) in duplicates. […] The 96 deep well plates were incubated for 1 hr at 4° C. Incubations were terminated by rapid filtration through Unifilter-96 plates (Packard Instrument Company) and glass filters GF/C (Perkin Elmer) presoaked for 1 hr in polyethylenimine (0.3%) and washed 3 times with 1 ml of cold binding buffer. After addition of 45 μl of Microscint 40 (PerkinElmer) the Unifilter-96 plate was sealed and after 1 hr the radioactivity counted using a TopCount Microplate Scintillation Counter (Packard Instrument Company).

The target of assay [2] is rat TAAR1 (Rattus norvegicus (Rat), UniProt Q923Y9). As to the kind of experiment: Radioligand binding assay on rat TAAR1. The conditions noted are these: rat TAAR1, membranes of stably transfected HEK-293 cells; second value of the pair; read-out: Ki (μM) mouse/rat: rat. How it is done: as §1, §2
Sequence of rat TAAR1 (Q923Y9 whole entry): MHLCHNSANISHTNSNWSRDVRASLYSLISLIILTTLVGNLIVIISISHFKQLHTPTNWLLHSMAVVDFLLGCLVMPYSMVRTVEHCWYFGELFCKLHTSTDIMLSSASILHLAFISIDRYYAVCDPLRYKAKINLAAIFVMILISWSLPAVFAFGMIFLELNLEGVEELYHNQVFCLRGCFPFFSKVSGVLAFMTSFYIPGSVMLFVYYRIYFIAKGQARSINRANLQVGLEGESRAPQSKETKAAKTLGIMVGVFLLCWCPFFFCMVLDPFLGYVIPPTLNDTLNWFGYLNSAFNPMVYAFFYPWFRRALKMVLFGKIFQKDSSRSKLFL
Radioligand Binding Assay on Rat TAAR1
as §3
as §4, with “1′000” for “1,000”, “48′000×g” for “48,000×g”

Turning to `O=C(Nc1ccc([C@H]2CNCCO2)nc1)c1ccc(C(F)(F)F)cc1` [Example 53, N-[6-[(2R)-Morpholin-2-yl]-3-pyridyl]-4-(trifluoromethyl)benzamide], the Ki in assay [1] was 0.0061 µM; in assay [2], 0.0718 µM.
For the compound `O=C(Nc1ccc(C2CNCCO2)nc1)c1ccc(Cl)cc1` (racemic) [Example 7, (RS)-4-Chloro-N-(6-morpholin-2-yl-3-pyridyl)benzamide], the Ki in assay [1] was 0.0038 µM; in assay [2] it was 0.0745 µM.
Taken in the same sequence, the figures for `CCCc1n[nH]c(C(=O)Nc2ccc([C@@H]3CNCCO3)nc2)c1Cl` [Example 39, 4-Chloro-N-[6-[(2S)-morpholin-2-yl]-3-pyridyl]-3-propyl-1H-pyrazole-5-carboxamide] were 0.007 µM and 0.0146 µM.
Taken in the same sequence, the figures for `O=C(Nc1ccc([C@@H]2CNCCO2)nc1)c1ccc(OCC(F)(F)F)nc1` [Example 36, N-[6-[(2S)-Morpholin-2-yl]-3-pyridyl]-6-(2,2,2-trifluoroethoxy)pyridine-3-carboxamide] were 0.0066 µM and 0.0278 µM.
Taken in the same sequence, the figures for `Fc1cc(Nc2ccc(C(F)(F)F)cn2)cnc1C1CNCCO1` (racemic) [Example 111, (RS)-5-Fluoro-6-morpholin-2-yl-N-[5-(trifluoromethyl)-2-pyridyl]pyridin-3-amine] were 0.0128 µM and 0.176 µM.
For the compound `CCCc1n[nH]c(C(=O)Nc2cnc(C3CNCCO3)c(F)c2)c1Cl` (racemic) [Example 114, (RS)-4-Chloro-N-(5-fluoro-6-morpholin-2-yl-3-pyridyl)-3-propyl-1H-pyrazole-5-carboxamide], the Ki in assay [1] was determined as 0.0048 µM; in assay [2], 0.0221 µM.
Take `Brc1ccc(Nc2ccc([C@H]3CNCCO3)nc2)nc1` [Example 47, N-(5-Bromo-2-pyridyl)-6-[(2R)-morpholin-2-yl]pyridin-3-amine]: the Ki in assay [1] is 0.0039 µM; in assay [2], 0.165 µM.
`CC(C)c1cc(C(=O)Nc2ccc([C@H]3CNCCO3)nc2)[nH]n1` [Example 58, 3-Isopropyl-N-[6-[(2R)-morpholin-2-yl]-3-pyridyl]-1H-pyrazole-5-carboxamide]: the values for the Ki in assay [1] and in assay [2] were 0.0373 µM and 0.685 µM, respectively.
Consider `CC(C)c1n[nH]c(C(=O)Nc2ccc([C@@H]3CNCCO3)nc2)c1F` [Example 121, 4-Fluoro-3-isopropyl-N-[6-[(2S)-morpholin-2-yl]-3-pyridyl]-1H-pyrazole-5-carboxamide], for which the Ki in assay [1] turned out to be 0.0239 µM; in assay [2] it was 0.0954 µM.
As to `O=C(Nc1ccc([C@H]2CNCCO2)nc1)c1[nH]nc(C2CC2)c1Cl` [Example 60, 4-Chloro-3-cyclopropyl-N-[6-[(2R)-morpholin-2-yl]-3-pyridyl]-1H-pyrazole-5-carboxamide], the Ki is 0.0096 µM in assay [1] and 0.0448 µM in assay [2].
Consider `FC(F)(F)c1cccc(Nc2ccc([C@@H]3CNCCO3)nc2)n1` [Example 30, N-[6-[(2S)-Morpholin-2-yl]-3-pyridyl]-6-(trifluoromethyl)pyridin-2-amine], for which the Ki in assay [1] came out at 0.0034 µM; in assay [2] it was 0.0208 µM.
With `O=C(Nc1ccc([C@@H]2CNCCO2)nc1)c1[nH]nc(C2CC2)c1F` [Example 80, 3-Cyclopropyl-4-fluoro-N-[6-[(2S)-morpholin-2-yl]-3-pyridyl]-1H-pyrazole-5-carboxamide], the Ki in assay [1] stood at 0.0065 µM; in assay [2] it was 0.0856 µM.
Consider `CCc1n[nH]c(C(=O)Nc2ccc([C@H]3CNCCO3)nc2)c1Br` [Example 84, 4-Bromo-3-ethyl-N-[6-[(2R)-morpholin-2-yl]-3-pyridyl]-1H-pyrazole-5-carboxamide], for which the figures for the Ki in assay [1] and in assay [2] were 0.0063 µM and 0.0685 µM, respectively.
Regarding `O=C(Nc1ccc([C@H]2CNCCO2)nc1)c1[nH]nc(C(F)(F)F)c1Cl` [Example 63, 4-Chloro-N-[6-[(2R)-morpholin-2-yl]-3-pyridyl]-3-(trifluoromethyl)-1H-pyrazole-5-carboxamide], the Ki was 0.0495 µM in assay [1] and 0.0613 µM in assay [2].
For the compound `Clc1ccc(Nc2cnc(C3CNCCO3)c(Cl)c2)nc1` (racemic) [Example 102, (RS)-5-Chloro-N-(5-chloro-2-pyridyl)-6-morpholin-2-yl-pyridin-3-amine], the Ki in assay [1] was determined as 0.178 µM; in assay [2] it was 0.461 µM.
For `O=C(Nc1cnc(C2CNCCO2)nc1)Nc1cccc(Cl)c1` (racemic) [Example 73, (RS)-1-(3-Chlorophenyl)-3-(2-morpholin-2-ylpyrimidin-5-yl)urea], the Ki in assay [1] worked out at 0.0059 µM; in assay [2], 1.96 µM.
For `CC(C)c1cc(C(=O)Nc2ccc([C@@H]3CNCCO3)nc2)n(CC(F)(F)F)n1` [Example 92, 5-Isopropyl-N-[6-[(2S)-morpholin-2-yl]-3-pyridyl]-2-(2,2,2-trifluoroethyl)pyrazole-3-carboxamide] the same measures were 0.262 µM and 0.0597 µM.
Taken in the same sequence, the figures for `O=C(Nc1ccc(Cl)cc1)Nc1ccc(C2CNCCO2)nc1` (racemic) [Example 11, (RS)-1-(4-Chlorophenyl)-3-(6-morpholin-2-yl-3-pyridyl)urea] were 0.0038 µM and 0.0047 µM.
With `CCOc1ccc(Nc2ccc(C3CNCCO3)nc2)cc1` (racemic) [Example 3, (RS)—N-(4-Ethoxyphenyl)-6-morpholin-2-yl-pyridin-3-amine], the figures for the Ki in assay [1] and in assay [2] were 0.0048 µM and 0.374 µM, respectively.
For `CCc1n[nH]c(C(=O)Nc2ccc([C@H]3CNCCO3)nc2)c1F` [Example 83, 3-Ethyl-4-fluoro-N-[6-[(2R)-morpholin-2-yl]-3-pyridyl]-1H-pyrazole-5-carboxamide] the same measures were 0.0083 µM and 0.757 µM.
`CC(C)Cc1n[nH]c(C(=O)Nc2ccc([C@H]3CNCCO3)nc2)c1F` [Example 95, 4-Fluoro-3-isobutyl-N-[6-[(2R)-morpholin-2-yl]-3-pyridyl]-1H-pyrazole-5-carboxamide]: the Ki in assay [1] stood at 0.0113 µM; in assay [2], 0.0534 µM.
For `Brc1ccc(Nc2ccc([C@@H]3CNCCO3)nc2)nc1` [Example 21, N-(5-Bromo-2-pyridyl)-6-[(2S)-morpholin-2-yl]pyridin-3-amine] the same measures were 0.002 µM and 0.0324 µM.
Regarding `CCc1ncc(C(=O)Nc2ccc([C@H]3CNCCO3)nc2)cn1` [Example 57, 2-Ethyl-N-[6-[(2R)-morpholin-2-yl]-3-pyridyl]pyrimidine-5-carboxamide], the Ki turned out to be 0.673 µM in assay [1] and 2.4 µM in assay [2].
For the compound `CC(C)c1cc(C(=O)Nc2ccc([C@H]3CNCCO3)nc2)n(CC(F)(F)F)n1` [Example 98, 5-Isopropyl-N-[6-[(2R)-morpholin-2-yl]-3-pyridyl]-2-(2,2,2-trifluoroethyl)pyrazole-3-carboxamide], the figures for the Ki in assay [1] and in assay [2] were 0.24 µM and 0.0442 µM, respectively.
